Residues, ends and D or L forms follow the SMILES beside them. *: point of attachment. Myristoyl = CCCCCCCCCCCCCC(=O)*
Tests used:
S. aureus ATCC 25923 = type: cell-based, Staphylococcus aureus; settings: ATCC 25923, 1 h
Protocol: (§1) The effects of abiotic factors on the antibacterial activity of Myr-36PW were investigated by MIC assay (Xi et al., [2013]; Zhong et al., [2019]). S. aureus ATCC 25923 and P. aeruginosa GIM 1.551 overnight cultures were diluted to 1 × 10^6 CFU/mL, and the MICs of peptides in MHB with different concentration of physiological salts (150 mM NaCL, 2 mM CaCL2) were determined. And after the peptides incubated in 10% mice serum for 1 h at 37°C, MICs of peptides against S. aureus ATCC 25923 and P. aeruginosa GIM 1.551 were determined. The MICs in MHB in the absence of physiological salts and serum were used as the control group.
(§2) Salt and serum stability in vitro were indicated by MIC assay. The concentrations of NaCl and CaCl2 were physiological concentration. 10% mice serum was inactivated by heat treatment for 15 min at 60 ℃。The control group was measured in the absence of physiological salts or serum in MHB.

P. aeruginosa GIM 1.551 = type: cell-based, Pseudomonas aeruginosa; settings: GIM 1.551, 1 h
Protocol: as §1, §2

[1] = test system: S. aureus ATCC 25923 and P. aeruginosa GIM 1.551; experiment: pH stability testing (pH 2-13, then inhibition zone assay); type: cell-based, Staphylococcus aureus; Pseudomonas aeruginosa; settings: for pH range of stable antimicrobial activity: peptides treated at pH 2–13, inhibition zone, 10 μg, n = 5
Protocol: For stability test, the Myr-36PW and peptides were treated with pH 2–13, and PBS buffer with different pH values was used as a control (Wang et al., [2019]). Inhibition zone assay was performed against S. aureus ATCC 25923 and P. aeruginosa GIM 1.551. The inhibition zone diameters of peptides (10 μg, 1 μg/μL) were measured after incubation for 18 h at 37°C, and the inhibition curve was drawn.
Figure 4 PH stability determination of Myr-36PW. PH stability test was performed using Myr-36PW and its analogs treated with different pH levels (2–13) through disk diffusion method. (A) (S. aureus ATCC 25923) and (B) (P. aeruginosa GIM 1.551) show the pH stability curve of PMAP-36, PMAP-36PW, and Myr-36PW. The diameter of the standard disk is 6 mm. Data represent the mean ± SD (n = 5).

With `CCCCCCCCCCCCCC(=O)NCC(=O)NCC(=O)N[C@@H](CCCNC(=N)N)C(=O)N[C@@H](Cc1ccccc1)C(=O)N[C@@H](CCCNC(=N)N)C(=O)N[C@@H](CCCNC(=N)N)C(=O)N[C@@H](CC(C)C)C(=O)N[C@@H](CCCNC(=N)N)C(=O)N[C@@H](CCCCN)C(=O)N[C@@H](CCCCN)C(=O)N[C@H](C(=O)N[C@@H](CCCNC(=N)N)C(=O)N[C@@H](CCCCN)C(=O)N[C@@H](CCCNC(=N)N)C(=O)N[C@@H](CC(C)C)C(=O)N[C@@H](CCCCN)C(=O)N[C@@H](CCCCN)C(=O)N[C@H](C(=O)NCC(=O)N[C@@H](CCCCN)C(=O)N[C@H](C(=O)N[C@@H](CC(C)C)C(=O)N[C@@H](CCCCN)C(=O)N[C@@H](Cc1c[nH]c2ccccc12)C(=O)N[C@H](C(=O)N[C@@H](Cc1c[nH]c2ccccc12)C(=O)N[C@@H](Cc1c[nH]c2ccccc12)C(=O)N[C@H](C(=O)N[C@H](C(=O)NCC(=O)N[C@@H](CO)C(=O)N[C@H](C(=O)N1CCC[C@H]1C(=O)N[C@@H](CC(C)C)C(=O)NCC(=O)N[C@@H](CS)C(=O)NCC(=O)O)[C@@H](C)CC)C(C)C)[C@@H](C)CC)[C@@H](C)CC)C(C)C)[C@@H](C)CC)[C@@H](C)O` [Myr-36PW] (Myristoyl-GGRFRRLRKKTRKRLKKIGKVLKWIWWIVGSIPLGCG-OH; C-terminus assumed) as the compound, how does the “MICs, Control” value (S. aureus ATCC 25923) read?
Its value is 0.0156 µg/mL.

And the “MICs, Serum” value (S. aureus ATCC 25923)?
The value was 0.0313 µg/mL.

What about the “MICs, CaCl2” value (P. aeruginosa GIM 1.551) of the same compound?
Its value is 0.5 µg/mL.

What about the “MICs, Control” value (P. aeruginosa GIM 1.551) of the same compound?
Its value is 0.25 µg/mL.

And the “MICs, NaCl” value (P. aeruginosa GIM 1.551)?
The value was 0.25 µg/mL.

What about the “MICs, Serum” value (P. aeruginosa GIM 1.551) of the same compound?
Its value is 0.5 µg/mL.

What about the “pH range of stable antimicrobial activity” value ([1]; against P. aeruginosa GIM 1.551) of the same compound?
The value was 5–11 pH.

And the “pH range of stable antimicrobial activity” value ([1]; against S. aureus ATCC 25923)?
Its value is 5–9 pH.

And the “Antimicrobial activity at pH 2” value ([1]; inhibition zone, 10 μg peptide)?
Its value is “higher than that of PMAP-36PW”.

What about the “Antimicrobial activity at pH 13” value ([1]; inhibition zone, 10 μg peptide) of the same compound?
Its value is “disappeared”.

Source: publication PMC7481357, “N-terminal Myristoylation Enhanced the Antimicrobial Activity of Antimicrobial Peptide PMAP-36PW” (Frontiers in Cellular and Infection Microbiology, 2020)
